Tests used:
Leishmania donovani [1] = experiment: Antileishmanial activity against Leishmania donovani promastigotes; assay type: functional, organism-based
[2] = Cytotoxicity against African green monkey Vero cells by neutral red assay; assay type: cell-based; details: chlorocebus sabaeus
Leishmania donovani [3] = experiment: Potency index, ratio of Artemisinin IC50 to test compound IC50 for antileishmanial activity against Leishmania donovani promastigotes; assay type: functional
Trypanosoma cruzi [4] = experiment: Potency index, ratio of artesunate IC50 to test compound IC50 for antitrypanosomal activity against Trypanosoma cruzi trypomastigotes; assay type: functional
[5] = Selectivity index, ratio of CC50 for African green monkey Vero cells to IC50 for Leishmania donovani promastigotes; assay type: toxicity; details: read-out: Ratio CC50/IC50
Trypanosoma cruzi [6] = experiment: Antitrypanosomal activity against Trypanosoma cruzi epimastigotes; assay type: functional, organism-based
Trypanosoma cruzi [7] = experiment: Potency index, ratio of benznidazole IC50 to test compound IC50 for antitrypanosomal activity against Trypanosoma cruzi trypomastigotes; assay type: functional
[8] = Selectivity index, ratio of CC50 for African green monkey Vero cells to IC50 for Trypanosoma cruzi epimastigotes; assay type: toxicity; details: read-out: Ratio CC50/IC50
Trypanosoma cruzi [9] = experiment: Trypanocidal activity against Trypanosoma cruzi epimastigotes at 100 uM measured after 24 hrs; assay type: functional
Trypanosoma cruzi [10] = experiment: Antitrypanosomal activity against Trypanosoma cruzi trypomastigotes; assay type: functional, organism-based
[11] = Selectivity index, ratio of CC50 for African green monkey Vero cells to IC50 for Trypanosoma cruzi trypomastigotes; assay type: toxicity; details: read-out: Ratio CC50/IC50
Vero = experiment: Cytotoxicity against African green monkey Vero cells up to 4.76 ug/ml by neutral red assay; assay type: cell-based; details: chlorocebus sabaeus, dose <=4.76 µg/ml

With `CC1(C)CC=C[C@]2(C)O[C@@]3(C)C=C[C@@]12OO3` (racemic) the IC50 (Leishmania donovani [1]) was > 100 µM and the IC90 (Leishmania donovani [1]) was > 100 µM.
With `CC1(C)CCC[C@]2(C)O[C@@]3(C)C=C[C@@]12OO3` (racemic) the IC50 (Leishmania donovani [1]) was > 100 µM and the IC90 (Leishmania donovani [1]) was > 100 µM.
In the case of `CC1(C)CC[C@H](O)[C@]2(C)O[C@@]3(C)C=C[C@@]12OO3` (racemic), the IC50 (Leishmania donovani [1]) is reported as > 100 µM and the IC90 (Leishmania donovani [1]) is reported as > 100 µM.
`C[C@@H]1[C@H](O)[C@@H](C)/C=C/C=C/C=C/C=C/C=C/C=C/C=C/[C@H](O[C@@H]2O[C@H](C)[C@@H](O)[C@H](N)[C@@H]2O)C[C@@H]2O[C@](O)(C[C@@H](O)C[C@@H](O)[C@H](O)CC[C@@H](O)C[C@@H](O)CC(=O)O[C@H]1C)C[C@H](O)[C@H]2C(=O)O` [AMPHOTERICIN B] gave an IC50 (Leishmania donovani [1]) of 0.19 µM and an IC90 (Leishmania donovani [1]) of 0.41 µM.
With `COC(=O)c1ccc(/C=C/[C@]23C=C[C@@]4(OO2)C(C)(C)CCC[C@]4(C)O3)cc1` (racemic) the CC50 [2] was > 12.8 µM, the “Ratio IC50” value (Leishmania donovani [3]) was >10 and the “Ratio IC50” value (Trypanosoma cruzi [4]) was 10. For the same molecule, the selectivity ratio [5] was 1.54, the IC50 (Trypanosoma cruzi [6]) was 2270 nM and the “Ratio IC50” value (Trypanosoma cruzi [7]) was 13. The selectivity ratio [8] was ≥ 5.56, the Activity (Trypanosoma cruzi [9]) was 100% and the IC50 (Trypanosoma cruzi [10]) was 0.84 µM. For the same molecule, the selectivity ratio [11] was ≥ 15.3, the IC50 (Leishmania donovani [1]) was 8.38 µM and the IC90 (Leishmania donovani [1]) was 18.9 µM.
For `CC1(C)CC[C@@H](O)[C@]2(C)O[C@@]3(C)C=C[C@@]12OO3` (racemic), the IC50 (Leishmania donovani [1]) was > 100 µM and the IC90 (Leishmania donovani [1]) was > 100 µM.
In the case of `C[C@@H]1CC[C@H]2[C@@H](C)C(=O)O[C@@H]3O[C@@]4(C)CC[C@@H]1[C@]32OO4` [ARTEMISININ], the IC50 (Leishmania donovani [1]) is reported as > 100 µM.
For `CC1(C)CC[C@H](O)[C@]2(C)O[C@@]3(/C=C/c4ccc(C(=O)NCc5ccccc5)cc4)C=C[C@@]12OO3` (racemic), the CC50 [2] was ≥ 9.33 µM, the “Ratio IC50” value (Leishmania donovani [3]) was >10 and the selectivity ratio [5] was 2.69. The IC50 (Leishmania donovani [1]) was 3.47 µM and the IC90 (Leishmania donovani [1]) was 5.42 µM.
Molecule `N=C(N)c1ccc(OCCCCCOc2ccc(C(=N)N)cc2)cc1` [PENTAMIDINE] has an IC90 (Leishmania donovani [1]) of 5.29 µM.
With `C[C@H]1[C@H](OC(=O)CCC(=O)O)O[C@@H]2O[C@@]3(C)CC[C@H]4[C@H](C)CC[C@@H]1[C@@]24OO3` [ARTESUNATE] the IC50 (Trypanosoma cruzi [6]) was 9440 nM, the IC50 (Trypanosoma cruzi [10]) was 13 µM and the IC50 (Leishmania donovani [1]) was 12.1 µM.
With `CC(=O)O[C@H]1CCC(C)(C)[C@@]23C=C[C@@](C)(OO2)O[C@@]13C` (racemic) the IC50 (Leishmania donovani [1]) was > 100 µM and the IC90 (Leishmania donovani [1]) was > 100 µM.
In the case of `CC1(C)CCC(=O)[C@]2(C)O[C@@]3(C)C=C[C@@]12OO3` (racemic), the IC50 (Leishmania donovani [1]) is reported as > 100 µM and the IC90 (Leishmania donovani [1]) is reported as > 100 µM.
With `CC1(C)CC[C@@H](O)[C@]2(C)O[C@@]3(/C=C/c4ccc(C(=O)NCc5ccccc5)cc4)C=C[C@@]12OO3` (racemic) the “Ratio IC50” value (Leishmania donovani [3]) was >10, the Activity (Vero) was “Non-Toxic” and the “Ratio IC50” value (Trypanosoma cruzi [4]) was 20. The selectivity ratio [5] was 1.36, the IC50 (Trypanosoma cruzi [6]) was 2660 nM and the “Ratio IC50” value (Trypanosoma cruzi [7]) was 13. For the same molecule, the selectivity ratio [8] was ≥ 3.88, the Activity (Trypanosoma cruzi [9]) was 100% and the IC50 (Trypanosoma cruzi [10]) was 0.62 µM. The selectivity ratio [11] was ≥ 16.6, the IC50 (Leishmania donovani [1]) was 7.59 µM and the IC90 (Leishmania donovani [1]) was 15.2 µM.
For `CC(=O)CCCC(C)(C)C(=O)/C=C/C(=O)/C=C/c1ccc(C(=O)NCc2ccccc2)cc1`, the “Ratio IC50” value (Leishmania donovani [3]) was >10, the selectivity ratio [5] was 1.98 and the IC50 (Trypanosoma cruzi [6]) was > 100000 nM. For the same molecule, the IC50 (Trypanosoma cruzi [10]) was 10.2 µM, the selectivity ratio [11] was ≥ 1.05 and the IC50 (Leishmania donovani [1]) was 5.39 µM. It also gave an IC90 (Leishmania donovani [1]) of 13.5 µM.
In the case of `COC(=O)c1ccc(/C=C/[C@]23C=C[C@@]4(OO2)C(C)(C)CCC(OC(C)=O)[C@]4(C)O3)cc1` (mixture of isomers), the “Ratio IC50” value (Leishmania donovani [3]) is reported as >10, the Activity (Vero) is reported as “Non-Toxic” and the selectivity ratio [5] is reported as 1.59. For the same molecule, the IC50 (Leishmania donovani [1]) was 7.01 µM and the IC90 (Leishmania donovani [1]) was 15.2 µM.
For `COC(=O)c1ccc(/C=C/[C@]23C=C[C@@]4(OO2)C(C)(C)CC[C@@H](O)[C@]4(C)O3)cc1` (racemic), the CC50 [2] was > 11.1 µM, the “Ratio IC50” value (Leishmania donovani [3]) was >10 and the selectivity ratio [5] was 2.38. The IC50 (Leishmania donovani [1]) was 5.18 µM and the IC90 (Leishmania donovani [1]) was 15.5 µM.
In the case of `CC1(C)CC[C@@H](O)[C@]2(C)O[C@@]3(C)CC[C@@]12OO3` (racemic), the IC50 (Leishmania donovani [1]) is reported as > 100 µM and the IC90 (Leishmania donovani [1]) is reported as > 100 µM.
With `CC1(C)CCC(=O)[C@]2(C)O[C@@]3(C)CC[C@@]12OO3` (racemic) the IC50 (Leishmania donovani [1]) was > 100 µM and the IC90 (Leishmania donovani [1]) was > 100 µM.
In the case of `CC1(C)CCC[C@]2(C)O[C@@]3(/C=C/c4ccc(C(=O)NCc5ccccc5)cc4)C=C[C@@]12OO3` (racemic), the CC50 [2] is reported as > 10.7 µM, the “Ratio IC50” value (Leishmania donovani [3]) is reported as >10 and the “Ratio IC50” value (Trypanosoma cruzi [4]) is reported as 10. For the same molecule, the selectivity ratio [5] was 4.33, the IC50 (Trypanosoma cruzi [6]) was 2480 nM and the “Ratio IC50” value (Trypanosoma cruzi [7]) was 13. The selectivity ratio [8] was ≥ 4.3, the Activity (Trypanosoma cruzi [9]) was 100% and the IC50 (Trypanosoma cruzi [10]) was 1.16 µM. For the same molecule, the selectivity ratio [11] was ≥ 9.21, the IC50 (Leishmania donovani [1]) was 2.47 µM and the IC90 (Leishmania donovani [1]) was 15.7 µM.
Work on `O=C(Cn1ccnc1[N+](=O)[O-])NCc1ccccc1` [BENZNIDAZOLE] yielded an IC50 (Trypanosoma cruzi [6]) of 32500 nM and an IC50 (Trypanosoma cruzi [10]) of 14.9 µM.
In the case of `CC(=O)O[C@@H]1CCC(C)(C)[C@@]23CC[C@@](C)(OO2)O[C@@]13C` (racemic), the IC50 (Leishmania donovani [1]) is reported as > 100 µM and the IC90 (Leishmania donovani [1]) is reported as > 100 µM.
With `CC1(C)CC[C@H](O)[C@]2(C)O[C@@]3(C)CC[C@@]12OO3` (racemic) the IC50 (Leishmania donovani [1]) was > 100 µM and the IC90 (Leishmania donovani [1]) was > 100 µM.
With `CC1(C)CC=C[C@]2(C)O[C@@]3(C)CC[C@@]12OO3` (racemic) the IC50 (Leishmania donovani [1]) was > 100 µM and the IC90 (Leishmania donovani [1]) was > 100 µM.
In the case of `CC(=O)O[C@@H]1CCC(C)(C)[C@@]23C=C[C@@](C)(OO2)O[C@@]13C` (racemic), the IC50 (Leishmania donovani [1]) is reported as > 100 µM and the IC90 (Leishmania donovani [1]) is reported as > 100 µM.

Source: ChEMBL document CHEMBL4725366, “Expanding the scope of synthetic 1,2,4-trioxanes towards Trypanosoma cruzi and Leishmania donovani” (Bioorg Med Chem Lett, 2020)
